80 compounds from the METLIN SMRT retention time set (Domingo-Almenara et al. 2019) can be followed below.

The nature of this data set: gradient 5% acetonitrile 3 min, to 50% in 2 min, to 85% in 15 min, held 3 min, 100 µL/min. Conditions: column: Zorbax Extend-C18 2.1 x 50 mm; eluents: water / acetonitrile, 0.1% formic acid. Put shortly:
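Retention time was recorded from adduct peaks, which were picked computationally and each inspected manually. Pure standards ran in mixtures of ~100 molecules on HPLC coupled to a quadrupole time-of-flight mass spectrometer, in positive and negative ionization mode, through a Zorbax Extend-C18 column (2.1 × 50 mm, 1.8 μm) at 100 μL/min. Eluents were water and acetonitrile, each with 0.1% formic acid.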
`CCCNC(=O)N1CCCC(c2nn[nH]n2)C1` (stereo not given) had an RP-LC retention time of 590 s.
Then `COC(=O)c1ccc(NC(=O)C2=Cc3cc(OC)ccc3OC=C2)cc1`, with 1040 s; and `COC(=O)c1ccc(N2C=C(C#N)S(=O)(=O)c3c(F)cccc32)cc1`, with 858 s.
To `C#CCCNC(=O)c1cccn(C)c1=O` belongs 572 s; to `O=C(Nc1c(F)cccc1F)N1CC(c2nc(C3CC3)no2)C1`, 670 s.
As to `CC(C)n1cnc(S(=O)(=O)N2CCC(C(=O)N3CCc4ccccc43)CC2)c1`, the RP-LC retention time was found to be 769 s.
Then `CC(C)c1nncn1C1CCN(S(=O)(=O)c2cccc(Cl)c2)CC1`, with 767 s; and `CC(C)NC(=O)c1ccc(OCC2CCCN(C(=O)c3cccc(F)c3)C2)cc1` (stereo not given), with 846 s.
`O=C(COc1ccccc1)N1CCN(C(=O)c2nnn3c2COC(c2ccccc2)C3)CC1` (stereo not given) had an RP-LC retention time of 850 s.
In turn, `COc1ccc(-c2c(C)noc2NC(C)=O)cc1S(=O)(=O)Nc1ccc(F)cc1` had an RP-LC retention time of 736 s.
Then `O=C(Nc1nc(-c2ccc(Cl)cc2)cs1)c1ccc(COc2ccccc2Cl)o1`, with 1310 s; and `Cc1cc(C(=O)N2CCCC2c2nncn2C(C)C)n[nH]1` (stereo not given), with 579 s; and `Cn1c(N2CCCC(C(=O)NCC3CCN(Cc4cccc(F)c4)CC3)C2)cc(=O)n(C)c1=O` (stereo not given), with 575 s.
To `O=C(CCn1nnc2cc(-c3noc(/C=C/c4ccccc4)n3)ccc21)N1CCCC1` belongs 954 s; to `CNC(=O)c1cc(-c2ccccc2)n[nH]1`, 643 s.
To `Cc1nc(Nc2ccccc2)sc1C(=O)NCC1CC1` belongs 800 s.
Compound `COC(=O)C1=CN(CC(=O)N2CCN(c3ccccc3)CC2)S(=O)(=O)N=C1C` gave an RP-LC retention time of 871 s.
To `CCN1C(=O)c2cc(S(=O)(=O)Nc3cc(F)ccc3C)ccc2Oc2cccnc21` belongs 1030 s.
The compound `COc1ccc(CNC(=O)Cn2cccc2-c2nnc(-c3ccccc3)o2)cc1` yielded an RP-LC retention time of 862 s.
To `O=c1c2nc(-c3ccc4c(c3)OCO4)cn2ccn1-c1cccc(F)c1` belongs 785 s.
Then `Cc1nn(C)c(C)c1CNC(=O)c1cccc2[nH]cc(CN3CCCC3)c12`, with 600 s.
In the case of `CN(CCc1ccccn1)C(=O)c1cn2ccnc(-c3ccccc3)c2n1`, the RP-LC retention time amounted to 563 s.
On to `Cn1c(N2CCCC(C(=O)NCC3CCN(Cc4ccc(F)cc4)CC3)C2)cc(=O)n(C)c1=O` (stereo not given), for which the RP-LC retention time was 590 s.
With `Cc1csc(C(=O)Nc2cccc3ccc(-n4ccnc4)nc23)c1`, the RP-LC retention time amounted to 641 s.
Then `O=C(N1CCN(c2ccccc2F)CC1)C1(CCO)CCN(c2ncccn2)C1` (stereo not given), with 652 s.
`O=C(Nc1ccccc1F)N1CCC(N2CCN(Cc3ccc(F)cc3)C2=O)CC1` gave an RP-LC retention time of 811 s.
In turn, `O=C(CCC1CCN(S(=O)(=O)c2ccccc2)CC1)NCc1ccc(F)cc1` gave an RP-LC retention time of 882 s.
Then `Cc1ccc(-c2nc(-c3ccc4ncn(C)c4c3)no2)cc1C`, with 842 s; and `Cc1cccc(-c2noc(C3CC(=O)N(c4ccc5c(c4)OCO5)C3)n2)c1` (stereo not given), with 978 s.
To `O=C(OCc1ccncc1)c1cn(-c2cccc(Cl)c2)c(=O)c2ccccc12` belongs 770 s; to `Cc1cc2[nH]c(C(=O)Nc3c(F)cccc3F)c(CN3CCOCC3)c2s1`, 675 s; to `COc1ccc(-n2/c(=N/C(=S)N(C)C)ss/c2=N\C(=S)N(C)C)cc1`, 1210 s.
Then `Nc1cc(C2CCN(C(=O)COc3ccccc3)CC2)no1`, with 662 s; and `CCn1cc(C(=O)Nc2ccc(Br)cc2)c2nn(-c3ccccc3)c(=O)c-2c1`, with 1090 s.
In the case of `COc1nc2ccccc2nc1N1CCCC(C(=O)N2CCCC2)C1` (stereo not given), the RP-LC retention time turned out to be 856 s.
As to `Cc1ccc(CNC(=O)C2CCCN2S(=O)(=O)c2cc3c(cc2Cl)NC(=O)CO3)cc1` (stereo not given), the RP-LC retention time came out at 786 s.
In the case of `CC1CCN(S(=O)(=O)c2ccc3c(c2)CCCC(=O)N3CC(=O)NCc2ccc(F)cc2)CC1`, the RP-LC retention time stood at 926 s.
Consider `O=C(CCc1c[nH]c2ccccc12)NC1CCN(c2ccc(=O)[nH]n2)C1` (stereo not given), for which the RP-LC retention time was found to be 595 s.
To `Cc1ccc(CNC(=O)CN2C(=O)C3CCCCN3c3ccc(S(=O)(=O)N4CCCC4)cc32)cc1` (stereo not given) belongs 966 s; to `O=C(N1CC(c2nc(-c3cccs3)no2)C1)C1(c2ccccc2)CCOCC1`, 814 s.
For the compound `CCN1c2cc(C(=O)NCCC3=CCCCC3)ccc2C(=O)N2CCCCC21` (stereo not given), the RP-LC retention time was found to be 959 s.
To `CCCn1ccc2sc(C)c(C(=O)NCCN3CCCCC3CC)c2c1=O` (stereo not given) belongs 673 s; to `CC(C)CC(=O)Nc1ccc(N2CCOCC2)cc1C(=O)O`, 713 s; to `COC(=O)c1cc(S(=O)(=O)N2CCCC2C(=O)NCc2ccccc2)cn1C` (stereo not given), 781 s.
Then `COc1cc2c(cc1CNC(=O)Cn1c(C)nc3cc4c(cc31)OCCO4)OCCCO2`, with 643 s.
Then `CCCn1ccc2sc(C)c(C(=O)N3CCN(C4CCCCC4)CC3)c2c1=O`, with 606 s.
In the case of `COc1ccccc1CCc1nc(C2CC(=O)N(C3CCCCC3)C2)no1` (stereo not given), the RP-LC retention time stood at 989 s.
To `CNC(=O)[C@@H]1CN(C(=O)c2ccc3c(c2)OCO3)C[C@H]1c1n[nH]c(C)n1` belongs 580 s.
Then `CCc1noc([C@@H]2CC(F)(F)CN2C(=O)c2nccn2C)n1`, with 744 s; and `COC(=O)c1ccc(Cl)cc1NC(=O)N(C)Cc1nc2cc(C(=O)N(C)C)ccc2n1C`, with 705 s.
Then `Cc1cc(S(=O)(=O)NCC2CCN(C(=O)NC(C)(C)C)CC2)c(Cl)cc1Cl`, with 927 s; and `CCn1nccc1-c1cccc(-c2noc(C(C)NC(=O)c3ccccc3)n2)c1` (stereo not given), with 929 s.
Consider `Cc1ccc(NS(=O)(=O)c2cc3n(c2)CCN(CC(C)C)C3=O)cc1`, for which the RP-LC retention time turned out to be 794 s.
To `O=C(c1ccc(Br)cc1)N1CCN(c2cc(-c3ccc(Cl)cc3)[nH]n2)CC1` belongs 945 s.
With `Cc1ccc(C)c(-c2coc(-c3ccc(NC(=O)NCCc4ccccc4)cc3)n2)c1`, the RP-LC retention time is 1240 s.
For `Cc1ccc2c(Nc3ccc(F)c(Cl)c3)c(C(=O)N3CCOCC3)cnc2n1`, the RP-LC retention time is 601 s.
Compound `Cc1ccc2cc(CCC(=O)O)c(=O)[nH]c2c1` yielded an RP-LC retention time of 758 s.
In the case of `Cc1ccc2c(Nc3ccc(F)c(C#N)c3)c(C(=O)N3CCOCC3)cnc2n1`, the RP-LC retention time came out at 598 s.
Then `O=C(CCC1CCCN(C(=O)Nc2ccc(F)cc2)C1)NCc1ccc(Cl)cc1` (stereo not given), with 856 s; and `CC(=O)N1c2ccc(S(=O)(=O)N3CCOCC3)cc2CC1C(=O)N1CCN(c2ccccc2)CC1` (stereo not given), with 776 s.
To `COc1ccc(CNC(=O)c2nnc(-c3ccc(S(=O)(=O)N4CCC(C)CC4)cc3)o2)cc1` belongs 1020 s; to `COc1ccc(NC(=O)C(=O)c2cccn2C)cc1OC`, 784 s; to `COc1ccc(-c2nnc(SCc3ccc(C#N)cc3)o2)cc1`, 948 s.
In the case of `CCOC(=O)C1CCCN(c2c(NCC3COc4ccccc4O3)c(=O)c2=O)C1` (stereo not given), the RP-LC retention time is 796 s.
Then `CCN(CC)S(=O)(=O)c1ccc2c(c1)N(CC(=O)NC1CCCC1)C(=O)C1CCCCN21` (stereo not given), with 927 s; and `CO[C@H]1CN(C2CCN(S(=O)(=O)c3ccc(C#N)cc3)CC2)[C@H]1c1cccnc1`, with 609 s; and `CCCN1C(=O)COc2ccc(-c3noc(-c4cccc(F)c4)n3)cc21`, with 1200 s.
To `CSc1cccc(NC(=O)C2CCCN(c3ncnc4c3nc3n4CCCCC3)C2)c1` (stereo not given) belongs 866 s; to `Cc1ccccc1NS(=O)(=O)c1cc2n(c1)CCN(CC(C)C)C2=O`, 795 s; to `CCOC(=O)c1c(C)n(C)c2ccc(OC(C)=O)cc12`, 889 s.
In turn, `O=C(NCCN1CCOCC1)c1ccc(Nc2c(-c3ccccc3)nc3cnccn23)cc1` gave an RP-LC retention time of 581 s.
For `CC(=O)Nc1ccc(SCCCC(=O)Nc2ccc3c(c2)OCCO3)nn1`, the RP-LC retention time stood at 634 s.
Then `O=C(Nc1ccccc1Cl)N1CCC(N2CCN(Cc3ccc(F)cc3)C(=O)C2=O)CC1`, with 776 s.
To `CCN1CCc2ncnc(SCC(=O)Nc3ccc(Cl)cc3C(F)(F)F)c2C1` belongs 597 s; to `O=C(CS(=O)(=O)c1c[nH]c2ccccc12)Nc1ccc2c(c1)OCCO2`, 651 s.
Consider `CC(NC(=O)CC1Sc2ccc(C(F)(F)F)cc2NC1=O)c1ccccc1` (stereo not given), for which the RP-LC retention time came to 848 s.
On to `O=S(=O)(c1ccc2c(c1)CCC2)N1CC[C@@H]2COCCN(Cc3cccnc3)[C@@H]2C1`, for which the RP-LC retention time stood at 687 s.
Compound `O=C(NC1CC1)C1CCc2sc(C(=O)N3CCCCCC3)cc2C1` (stereo not given) came in with an RP-LC retention time of 736 s.
To `CCc1ccc(N2CC(c3nc4ccccc4n3CC(=O)N3CCCC3)CC2=O)cc1` (stereo not given) belongs 739 s.
In turn, `COC(=O)c1ccc(NC(=O)C2CC(=O)N(c3ccc4c(c3)CCN4C(C)=O)C2)cc1` (stereo not given) had an RP-LC retention time of 700 s.
